Measured values from PubChem BioAssay AID602237 (National Center for Advancing Translational Sciences (NCATS), 2012).
≈ marks a conversion by molar mass, not a printed value.

Test system: aqueous kinetic solubility, PBS pH 7.4, LC-UV/MS
Assay: qHTS for Activators of Human alpha-Glucosidase as a Potential Chaperone Treatment of Pompe Disease: Aqueous Solubility
Settings: active compounds read high
Description: Alpha-glucosidase is responsible for hydrolysis of terminal, non-reducing 1,4-linked alpha-D-glucose residues with release of alpha-D-glucose. It is a lysosomal hydrolase that is required for the degradation of a small percentage (1-3%) of cellular glycogen in human. Deficiency of this enzyme results in glycogen-storage disease type II (GSDII), also referred to as Pompe disease, an autosomal recessive disorder. Structurally normal glycogen is accumulated in lysosomes and cytoplasm in affected patients, primarily in muscle tissues. Excessive glycogen storage within lysosomes may interrupt normal functioning of other organelles and leads to cellular injury. In turn, this leads to enlargement and dysfunction of the entire organ involved (eg, cardiomyopathy and muscle weakness). It has reported that the improper folding and trafficking of alpha-glucosidase resulting from the genetic mutations may account for a significant number of Pompe patients. […]
1. […] Concentration of the supernatant was determined by LC-UV or LC-MS/MS […]

solubility: 289 µM (≈ 109 µg/mL)
Structure (SMILES): CCCN1CNc2c(c(=O)[nH]c(=S)n2Cc2ccc(OC)c(OC)c2)C1
